Assays:
[1] = tested on: Transgenic HD mice of the N171-82Q strain; test: Rotarod behavioral testing in transgenic mouse model of Huntington's disease; assay type: in vivo; conditions: transgenic HD mice N171-82Q, 30 mg/kg from 10 weeks of age, vs vehicle
Experimental: Transgenic HD mice of the […]-[…] strain and non-transgenic littermates were treated with NAALADase inhibitor Compound B (30 mg/kg) or a vehicle from 10 weeks of age. The mice were placed on a rotating rod (“rotarod”). The length of time at which the mouse fell off the rotarod was recorded as a measure of motor coordination. […] The treatment with Compound B had no effect on the rotarod performance of normal non-HD mice.

[2] = tested on: Transgenic HD mice of the N171-82Q strain; test: Total distance traveled (overall locomotion) in HD mice; assay type: in vivo; conditions: 30 mg/kg from 10 weeks of age, vs vehicle
Experimental: Transgenic HD mice of the […]-[…] strain and non-transgenic littermates were treated with NAALADase inhibitor Compound B (30 mg/kg) or a vehicle from 10 weeks of age. The mice were placed on a rotating rod (“rotarod”). The length of time at which the mouse fell off the rotarod was recorded as a measure of motor coordination. […] The treatment with Compound B had no effect on the rotarod performance of normal non-HD mice. The total distance traveled by the mice was also recorded as a measure of overall locomotion.

[3] = tested on: transgenic HD mice (N171-82Q); test: Survival of transgenic HD mice; assay type: in vivo
Experimental: The effects of Compound B and vehicle on the survival of transgenic HD mice (N171-82Q) were evaluated. Thirteen mice (six male and seven female) were assigned to the Compound B treatment group, and fourteen mice (six male and eight female) were assigned to the vehicle treatment group. Treatment was continued until all the mice died.

NAALADase = NAALADase (Homo sapiens, UniProt Q04609); conditions: NAAG as substrate of NAALADase; cited from earlier work
NAALADase, sequence (Q04609 whole entry): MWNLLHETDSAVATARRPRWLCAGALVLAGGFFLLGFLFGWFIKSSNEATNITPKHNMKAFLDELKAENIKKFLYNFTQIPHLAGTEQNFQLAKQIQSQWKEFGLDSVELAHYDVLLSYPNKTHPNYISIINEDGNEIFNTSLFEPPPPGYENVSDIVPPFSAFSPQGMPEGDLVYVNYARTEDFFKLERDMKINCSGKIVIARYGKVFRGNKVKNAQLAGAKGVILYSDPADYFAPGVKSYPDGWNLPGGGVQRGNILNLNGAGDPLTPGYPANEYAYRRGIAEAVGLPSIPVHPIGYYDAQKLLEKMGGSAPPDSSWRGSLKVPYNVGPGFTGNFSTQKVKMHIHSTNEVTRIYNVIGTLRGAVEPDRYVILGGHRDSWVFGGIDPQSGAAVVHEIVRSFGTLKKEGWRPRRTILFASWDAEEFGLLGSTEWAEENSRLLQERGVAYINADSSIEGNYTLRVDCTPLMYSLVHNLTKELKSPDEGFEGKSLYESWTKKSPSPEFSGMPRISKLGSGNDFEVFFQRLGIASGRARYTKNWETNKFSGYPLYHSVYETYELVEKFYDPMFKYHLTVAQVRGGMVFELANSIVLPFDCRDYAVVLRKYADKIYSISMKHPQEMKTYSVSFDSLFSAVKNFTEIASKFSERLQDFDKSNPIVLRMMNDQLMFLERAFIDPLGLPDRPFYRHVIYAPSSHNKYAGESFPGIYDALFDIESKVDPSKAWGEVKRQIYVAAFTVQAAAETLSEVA

| Compound | rotarod performance (length of time on the rotarod, motor coordination) [1] | total distance traveled (overall locomotion) [2] | survival time vs vehicle ([3]; female transgenic HD mice, p-value 0.03) | survival time vs vehicle ([3]; transgenic HD mice N171-82Q, both sexes, difference in median survival time) | median survival time ([3]; transgenic HD mice N171-82Q, both sexes, vehicle 158.5 days, p-value=0.07) [days] | Km (NAALADase) [µM] |
| --- | --- | --- | --- | --- | --- | --- |
| O=C(O)CCC(CCCS)C(=O)O (stereo not drawn) [Compound B, 2-(3-sulfanylpropyl)-pentanedioic acid] | stayed longer on the rotarod | no apparent effect on overall locomotion | significantly prolonged survival time | not statistically significant | 184 | – |
| N-acetyl-aspartyl-glutamate [NAAG] | – | – | – | – | – | 0.54 |
